The values below come from ChEMBL document CHEMBL1133640, “Structure-activity studies including a Psi(CH(2)-NH) scan of peptide YY (PYY) active site, PYY(22-36), for interaction with rat intestinal PYY receptors: development of analogues with potent in vivo activity in the intestine” (J Med Chem, 2000).

Test [1] deals with Neuropeptide Y receptor type 1 (Homo sapiens, UniProt P25929). Nature of the test: Affinity against Neuropeptide Y receptor Y1 in SK-N-MC cell line. It is filed as cell-based.
For test [2], the target named is Neuropeptide Y receptor type 2 (Rattus norvegicus, UniProt Q9ERC0). The test is described as follows: Antisecretory potency, affinity for intestinal PYY of rat jejunum by using short circuit current (SCC) method. It is filed as tissue-based.
Test [3] deals with T1, Neuropeptide Y receptor type 2 (Homo sapiens, UniProt P49146).
T1 sequence (P49146 whole entry): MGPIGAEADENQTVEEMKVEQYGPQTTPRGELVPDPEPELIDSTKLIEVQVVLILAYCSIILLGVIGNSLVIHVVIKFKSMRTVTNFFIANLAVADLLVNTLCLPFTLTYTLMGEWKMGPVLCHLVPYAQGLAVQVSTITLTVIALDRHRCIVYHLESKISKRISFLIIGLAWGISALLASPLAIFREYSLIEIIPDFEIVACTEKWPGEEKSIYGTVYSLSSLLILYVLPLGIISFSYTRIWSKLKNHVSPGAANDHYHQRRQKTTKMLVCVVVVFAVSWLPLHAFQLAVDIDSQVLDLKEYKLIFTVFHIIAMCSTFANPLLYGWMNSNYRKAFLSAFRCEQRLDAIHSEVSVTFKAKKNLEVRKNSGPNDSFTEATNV
Nature of the test: Affinity against Neuropeptide Y receptor Y2 in SK-N-BE2 cell line.

*1 amine or outer side, *2 acyl side, *3 side chain or, on linkers, in order; H or OH if unused. Where a SMILES comes first, the peptide text is derived from it. Side-chain parts run from the residue outwards. [ ]: non-standard residue; d: D form. The star is where a group is joined. X1 = C[C@@H](O)[C@@H](CN[C@@H](CCCN=C(N)N)C(=O)N[C@@H](CCC(N)=O)C(=O)N[C@@H](CCCN=C(N)N)C(=O)N[C@@H](Cc1ccc(O)cc1)C(N)=O)N*; X2 = N=C(N)NCCC[C@@H](CN[C@@H](CCC(N)=O)C(=O)N[C@@H](CCCNC(=N)N)C(=O)N[C@@H](Cc1ccc(O)cc1)C(N)=O)N*; Argψ(CH2NH)TyrNH2 = N=C(N)NCCC[C@@H](CN[C@@H](Cc1ccc(O)cc1)C(N)=O)N*; X4 = NC(N)=NCCC[C@@H](CN([C@@H](Cc1c[nH]cn1)C(=O)[*:2])[*:1])N[*:3]; X3 = CC(C)C[C@@H](CN([C@@H](CCCNC(=N)N)C(=O)[*:2])[*:1])N[*:3]; Dip = N[C@H](C(=O)O)C(c1ccccc1)c1ccccc1; 1Nal = N[C@@H](Cc1cccc2ccccc12)C(=O)O; 3Thi = N[C@@H](Cc1ccsc1)C(=O)O

Chain of Neuropeptide Y receptor type 2 (Rattus norvegicus, UniProt Q9ERC0) (Q9ERC0 whole entry): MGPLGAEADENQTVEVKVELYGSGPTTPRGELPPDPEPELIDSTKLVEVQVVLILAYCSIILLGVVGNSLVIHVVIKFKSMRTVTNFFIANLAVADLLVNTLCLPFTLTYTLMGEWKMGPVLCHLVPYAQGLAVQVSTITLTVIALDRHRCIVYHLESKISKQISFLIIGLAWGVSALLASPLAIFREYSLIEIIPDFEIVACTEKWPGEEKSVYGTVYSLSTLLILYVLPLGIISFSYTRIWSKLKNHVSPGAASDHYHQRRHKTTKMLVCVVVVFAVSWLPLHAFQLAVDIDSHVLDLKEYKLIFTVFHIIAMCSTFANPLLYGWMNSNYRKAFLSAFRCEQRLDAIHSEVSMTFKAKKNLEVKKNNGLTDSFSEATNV
Chain of Neuropeptide Y receptor type 1 (P25929 whole entry): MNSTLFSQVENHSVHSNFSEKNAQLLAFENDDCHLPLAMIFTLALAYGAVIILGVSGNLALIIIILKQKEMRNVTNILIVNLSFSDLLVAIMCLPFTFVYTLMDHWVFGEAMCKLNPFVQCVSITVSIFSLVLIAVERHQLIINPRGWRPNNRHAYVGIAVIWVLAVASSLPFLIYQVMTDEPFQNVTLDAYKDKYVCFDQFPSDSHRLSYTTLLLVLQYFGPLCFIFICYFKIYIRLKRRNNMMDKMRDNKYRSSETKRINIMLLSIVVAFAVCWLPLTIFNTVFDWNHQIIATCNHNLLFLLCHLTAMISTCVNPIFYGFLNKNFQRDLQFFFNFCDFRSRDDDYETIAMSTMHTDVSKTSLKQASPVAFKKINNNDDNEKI

In the case of `CC(=O)N[C@@H](C)C(=O)N[C@@H](CO)C(=O)N[C@@H](CC(C)C)C(=O)N[C@@H](CCCN=C(N)N)C(=O)N[C@@H](Cc1c[nH]cn1)C(=O)N[C@@H](Cc1ccc(O)cc1)C(=O)N[C@@H](CC(C)C)C(=O)N[C@@H](CC(N)=O)C(=O)N[C@H](Cc1c[nH]c2ccccc12)C(=O)N[C@H](C(=O)N[C@H](C(=O)N[C@@H](CCCN=C(N)N)C(=O)N[C@@H](CCC(N)=O)C(=O)N[C@@H](CCCN=C(N)N)C(=O)N[C@@H](Cc1ccc(O)cc1)C(N)=O)[C@@H](C)O)C(C)C`, the IC50 was 47.9 nM in test [1], > 100 nM in test [2] and 56.5 nM in test [3].
For the molecule `CC(=O)N[C@@H](C)C(=O)N[C@@H](CO)C(=O)N[C@@H](CC(C)C)C(=O)N[C@@H](CCCNC(=N)N)C(=O)N[C@@H](Cc1cnc[nH]1)C(=O)N[C@@H](Cc1ccc(O)cc1)C(=O)N[C@@H](CC(C)C)C(=O)N[C@@H](CC(N)=O)C(=O)N[C@@H](Cc1c[nH]c2ccccc12)C(=O)N[C@H](C(=O)N[C@H](C(=O)N[C@@H](CCCNC(=N)N)C(=O)N[C@@H](CCC(N)=O)C(=O)N[C@@H](CCCNC(=N)N)CN[C@@H](Cc1ccc(O)cc1)C(N)=O)[C@@H](C)O)C(C)C`, the IC50 was found to be 1510 nM in test [1], 0.28 nM in test [2] and 1.39 nM in test [3].
For `CC(=O)N[C@@H](C)C(=O)N[C@@H](CO)C(=O)N[C@@H](CC(C)C)C(=O)N[C@@H](CCCN=C(N)N)C(=O)N[C@@H](Cc1c[nH]cn1)C(=O)N[C@H](CN[C@@H](CC(C)C)C(=O)N[C@@H](CC(N)=O)C(=O)N[C@@H](CC(C)C)C(=O)N[C@H](C(=O)N[C@H](C(=O)N[C@@H](CCCN=C(N)N)C(=O)N[C@@H](CCC(N)=O)C(=O)N[C@@H](CCCN=C(N)N)C(=O)N[C@@H](Cc1ccc(O)cc1)C(N)=O)[C@@H](C)O)C(C)C)Cc1ccc(O)cc1` the same measures were 1270 nM, > 100 nM and 864 nM.
With `CC(=O)N[C@@H](C)C(=O)N[C@@H](CO)C(=O)N[C@@H](CC(C)C)C(=O)N[C@@H](CCCNC(=N)N)C(=O)N[C@@H](Cc1cnc[nH]1)C(=O)N[C@@H](Cc1c[nH]c2ccccc12)C(=O)N[C@@H](CC(C)C)C(=O)N[C@@H](CC(N)=O)C(=O)N[C@@H](CC(C)C)C(=O)N[C@H](C(=O)N[C@H](C(=O)N[C@@H](CCCNC(=N)N)C(=O)N[C@@H](CCC(N)=O)C(=O)N[C@@H](CCCNC(=N)N)CN[C@@H](Cc1ccc(O)cc1)C(N)=O)[C@@H](C)O)C(C)C` (Ac-ASLRHWLNLVTRQ-{Argψ(CH2NH)TyrNH2}), the figures for the IC50 in test [1], in test [2] and in test [3] were > 1000 nM, 1.12 nM and 1.05 nM, respectively.
The like results for `CC(=O)N[C@@H](C)C(=O)N[C@@H](CO)C(=O)N[C@@H](CC(C)C)C(=O)N[C@@H](CCCN=C(N)N)C(=O)N[C@@H](Cc1c[nH]cn1)C(=O)N[C@@H](Cc1ccc(O)cc1)C(=O)N[C@@H](CC(C)C)C(=O)N[C@@H](CC(N)=O)C(=O)N[C@@H](CC(C)C)C(=O)N[C@H](C(=O)N[C@H](CN[C@@H](CCCN=C(N)N)C(=O)N[C@@H](CCC(N)=O)C(=O)N[C@@H](CCCN=C(N)N)C(=O)N[C@@H](Cc1ccc(O)cc1)C(N)=O)[C@@H](C)O)C(C)C` (Ac-ASLRHYLNLV-X1) were, in that order, 1090 nM, 5.03 nM and 52 nM.
For `CC(=O)N[C@@H](C)C(=O)N[C@@H](CO)C(=O)N[C@@H](CC(C)C)C(=O)N[C@@H](CCCNC(=N)N)C(=O)N[C@@H](Cc1cnc[nH]1)C(=O)N[C@@H](Cc1ccc(O)cc1)C(=O)N[C@@H](CC(C)C)C(=O)N[C@@H](CC(N)=O)C(=O)N[C@@H](CC(C)C)C(=O)N[C@H](C(=O)N[C@H](C(=O)N[C@@H](CCCNC(=N)N)CN[C@@H](CCC(N)=O)C(=O)N[C@@H](CCCNC(=N)N)C(=O)N[C@@H](Cc1ccc(O)cc1)C(N)=O)[C@@H](C)O)C(C)C` (Ac-ASLRHYLNLVT-X2) the same measures were 1250 nM, > 100 nM and > 10000 nM.
The like results for `CC(=O)N[C@@H](C)C(=O)N[C@@H](CO)C(=O)N[C@@H](CC(C)C)C(=O)N[C@@H](CCCN=C(N)N)C(=O)N[C@@H](Cc1c[nH]cn1)C(=O)N[C@@H](Cc1ccc(O)cc1)C(=O)N[C@@H](CC(C)C)C(=O)N[C@@H](CC(N)=O)C(=O)N[C@@H](CC(C)C)C(=O)N[C@H](C(=O)N[C@H](C(=O)N[C@@H](CCCN=C(N)N)C(=O)N[C@@H](CCC(N)=O)C(=O)N[C@@H](CCCN=C(N)N)CN[C@@H](Cc1ccc(O)cc1)C(N)=O)[C@@H](C)O)C(C)C` (Ac-ASLRHYLNLVTRQ-{Argψ(CH2NH)TyrNH2}) were, in that order, > 10000 nM, 0.05 nM and 1.32 nM.
For `CC(=O)N[C@@H](C)C(=O)N[C@@H](CO)C(=O)N[C@@H](CC(C)C)C(=O)N[C@@H](CCCNC(=N)N)C(=O)N[C@@H](Cc1cnc[nH]1)C(=O)N[C@@H](Cc1ccc(O)cc1)C(=O)N[C@@H](CC(C)C)C(=O)N[C@@H](CC(N)=O)C(=O)N[C@@H](CC(C)C)C(=O)N[C@H](C(=O)N[C@H](C(=O)N[C@@H](CCCNC(=N)N)C(=O)N[C@@H](CCC(N)=O)C(=O)N[C@@H](CCCNC(=N)N)C(=O)N[C@H](C(N)=O)C(c1ccccc1)c1ccccc1)[C@@H](C)O)C(C)C` (Ac-ASLRHYLNLVTRQR[Dip]-NH2), the figures for the 50% inhibitory concentration (IC50) in test [1], in test [2] and in test [3] were 1250 nM, > 100 nM and > 10000 nM, respectively.
The like results for `CC(=O)N[C@@H](C)C(=O)N[C@@H](CO)C(=O)N[C@@H](CC(C)C)C(=O)N[C@@H](CCCNC(=N)N)C(=O)N[C@@H](Cc1cnc[nH]1)C(=O)N[C@@H](Cc1ccc(O)cc1)C(=O)N[C@@H](CC(C)C)C(=O)N[C@@H](CC(N)=O)C(=O)N[C@@H](Cc1cccc2ccccc12)C(=O)N[C@H](C(=O)N[C@H](C(=O)N[C@@H](CCCNC(=N)N)C(=O)N[C@@H](CCC(N)=O)C(=O)N[C@@H](CCCNC(=N)N)C(=O)N[C@@H](Cc1ccc(O)cc1)C(N)=O)[C@@H](C)O)C(C)C` (Ac-ASLRHYLN[1Nal]VTRQRY-NH2) were, in that order, 159 nM, 3.54 nM and 1.09 nM.
The like results for `CC(=O)N[C@@H](C)C(=O)N[C@@H](CO)C(=O)N[C@@H](CC(C)C)C(=O)N[C@@H](CCCN=C(N)N)C(=O)N[C@@H](Cc1c[nH]cn1)C(=O)N[C@@H](Cc1cccc2ccccc12)C(=O)N[C@@H](CC(C)C)C(=O)N[C@@H](CC(N)=O)C(=O)N[C@@H](CC(C)C)C(=O)N[C@H](C(=O)N[C@H](C(=O)N[C@@H](CCCN=C(N)N)C(=O)N[C@@H](CCC(N)=O)C(=O)N[C@@H](CCCN=C(N)N)C(=O)N[C@@H](Cc1ccc(O)cc1)C(N)=O)[C@@H](C)O)C(C)C` (Ac-ASLRH[1Nal]LNLVTRQRY-NH2) were, in that order, 88.3 nM, 6.6 nM and 7.08 nM.
For `CC(=O)N[C@@H](C)C(=O)N[C@@H](CO)C(=O)N[C@@H](CC(C)C)C(=O)N[C@@H](CCCN=C(N)N)C(=O)N[C@@H](Cc1c[nH]cn1)C(=O)N[C@@H](Cc1ccsc1)C(=O)N[C@@H](CC(C)C)C(=O)N[C@@H](CC(N)=O)C(=O)N[C@@H](CC(C)C)C(=O)N[C@H](C(=O)N[C@H](C(=O)N[C@@H](CCCN=C(N)N)C(=O)N[C@@H](CCC(N)=O)C(=O)N[C@@H](CCCN=C(N)N)C(=O)N[C@@H](Cc1ccc(O)cc1)C(N)=O)[C@@H](C)O)C(C)C` (Ac-ASLRH[3Thi]LNLVTRQRY-NH2), the IC50 amounted to 257 nM in test [1] (sk-n-mc), 1 nM in test [2] and 2.63 nM in test [3].
As for `CC(=O)N[C@@H](C)C(=O)N[C@@H](CO)C(=O)N[C@@H](CC(C)C)C(=O)N[C@@H](CCCNC(=N)N)C(=O)N[C@@H](Cc1cnc[nH]1)C(=O)N[C@H](C(=O)N[C@@H](CC(C)C)C(=O)N[C@@H](CC(N)=O)C(=O)N[C@@H](CC(C)C)C(=O)N[C@H](C(=O)N[C@H](C(=O)N[C@@H](CCCNC(=N)N)C(=O)N[C@@H](CCC(N)=O)C(=O)N[C@@H](CCCNC(=N)N)C(=O)N[C@@H](Cc1ccc(O)cc1)C(N)=O)[C@@H](C)O)C(C)C)C(c1ccccc1)c1ccccc1` (Ac-ASLRH[Dip]LNLVTRQRY-NH2), the IC50 in test [1] stood at 447 nM; in test [2], 16.5 nM; in test [3] it was 10 nM.
For `CC(=O)N[C@@H](C)C(=O)N[C@@H](CO)C(=O)N[C@H](CN[C@@H](CCCNC(=N)N)C(=O)N[C@@H](Cc1cnc[nH]1)C(=O)N[C@@H](Cc1ccc(O)cc1)C(=O)N[C@@H](CC(C)C)C(=O)N[C@@H](CC(N)=O)C(=O)N[C@@H](CC(C)C)C(=O)N[C@H](C(=O)N[C@H](C(=O)N[C@@H](CCCNC(=N)N)C(=O)N[C@@H](CCC(N)=O)C(=O)N[C@@H](CCCNC(=N)N)C(=O)N[C@@H](Cc1ccc(O)cc1)C(N)=O)[C@@H](C)O)C(C)C)CC(C)C` (H-[X3]([Ser-Ala-Ac])HYLNLVTRQRY-NH2) the same measures were 735 nM, 2.76 nM and 59 nM.
For `CC(=O)N[C@@H](C)C(=O)N[C@@H](CO)C(=O)N[C@@H](CC(C)C)C(=O)N[C@@H](CCCN=C(N)N)CN[C@@H](Cc1c[nH]cn1)C(=O)N[C@@H](Cc1ccc(O)cc1)C(=O)N[C@@H](CC(C)C)C(=O)N[C@@H](CC(N)=O)C(=O)N[C@@H](CC(C)C)C(=O)N[C@H](C(=O)N[C@H](C(=O)N[C@@H](CCCN=C(N)N)C(=O)N[C@@H](CCC(N)=O)C(=O)N[C@@H](CCCN=C(N)N)C(=O)N[C@@H](Cc1ccc(O)cc1)C(N)=O)[C@@H](C)O)C(C)C` (H-[X4]([Leu-Ser-Ala-Ac])YLNLVTRQRY-NH2) the same measures were > 1000 nM, 4.22 nM and 41 nM.

By IC50 is commonly meant the midpoint of a concentration-inhibition curve. A higher IC50 goes with weaker potency.
